Source: ChEMBL document CHEMBL1156337, “Synthesis and evaluation of novel benzothiazole derivatives based on the bithiophene structure as potential radiotracers for beta-amyloid plaques in Alzheimer's disease” (Bioorg Med Chem, 2010)
The source made the active and inactive calls. The calls are words filed in the database; no cut-off is given here.

Legend:
[1] = Displacement of [125I]TZDM from amyloid beta (1 to 40) aggregates after 2 hrs
Mus musculus [2] = species: Mus musculus; test: Binding affinity to beta amyloid plaques in brain sections of TgC57 transgenic mouse transfected with APP and PS1 double mutant after 30 mins by autoradiography; type: tissue-based; details: tested as the 125I-labelled form
[3] = Displacement of [125I]TZDM from amyloid beta (1 to 42) aggregates after 2 hrs
Mus musculus [4] = species: Mus musculus; test: Binding affinity to beta amyloid plaques in brain sections of TgC57 transgenic mouse transfected with APP and PS1 double mutant after 30 mins by autoradiography in the presence of thioflavin-T; type: tissue-based; details: tested as the 125I-labelled form
Mus musculus [5] = species: Mus musculus; test: Binding affinity to beta amyloid plaques in brain sections of TgC57 transgenic mouse transfected with APP and PS1 double mutant after 10 mins using thioflavin-S stain; type: tissue-based
Blood [6] = test: Biodistribution in blood of Kunming mouse at 1 uCi, iv after 60 mins by gamma counting; type: ADME, organism-based; details: in vivo, 1 h
Muscle tissue [7] = test: Biodistribution in muscle of Kunming mouse at 1 uCi, iv after 2 mins by gamma counting; type: ADME, organism-based; details: in vivo
Brain [8] = test: Biodistribution in brain of Kunming mouse at 1 uCi, iv after 120 mins by gamma counting; type: ADME, organism-based; details: in vivo, 2 h
Muscle tissue [9] = test: Biodistribution in muscle of Kunming mouse at 1 uCi, iv after 240 mins by gamma counting; type: ADME, organism-based; details: in vivo, 4 h
Blood [10] = test: Biodistribution in blood of Kunming mouse at 1 uCi, iv after 240 mins by gamma counting; type: ADME, organism-based; details: in vivo, 4 h
Blood [11] = test: Biodistribution in blood of Kunming mouse at 1 uCi, iv after 2 mins by gamma counting; type: ADME, organism-based; details: in vivo
Brain [12] = test: Biodistribution in brain of Kunming mouse at 1 uCi, iv after 30 mins by gamma counting; type: ADME, organism-based; details: in vivo, 0.5 h
Lung [13] = test: Biodistribution in lung of Kunming mouse at 1 uCi, iv after 240 mins by gamma counting; type: ADME, organism-based; details: in vivo, 4 h
Lung [14] = test: Biodistribution in lung of Kunming mouse at 1 uCi, iv after 120 mins by gamma counting; type: ADME, organism-based; details: in vivo, 2 h
Kidney [15] = test: Biodistribution in kidney of Kunming mouse at 1 uCi, iv after 30 mins by gamma counting; type: ADME, organism-based; details: in vivo, 0.5 h
Lung [16] = test: Biodistribution in lung of Kunming mouse at 1 uCi, iv after 30 mins by gamma counting; type: ADME, organism-based; details: in vivo, 0.5 h
Muscle tissue [17] = test: Biodistribution in muscle of Kunming mouse at 1 uCi, iv after 30 mins by gamma counting; type: ADME, organism-based; details: in vivo, 0.5 h
Stomach [18] = test: Biodistribution in stomach of Kunming mouse at 1 uCi, iv after 2 mins by gamma counting measured per organ; type: ADME, organism-based; details: in vivo
Stomach [19] = test: Biodistribution in stomach of Kunming mouse at 1 uCi, iv after 120 mins by gamma counting measured per organ; type: ADME, organism-based; details: in vivo, 2 h
Heart [20] = test: Biodistribution in heart of Kunming mouse at 1 uCi, iv after 120 mins by gamma counting; type: ADME, organism-based; details: in vivo, 2 h
Liver [21] = test: Biodistribution in liver of Kunming mouse at 1 uCi, iv after 2 mins by gamma counting; type: ADME, organism-based; details: in vivo
Brain [22] = test: Biodistribution in brain of Kunming mouse at 1 uCi, iv after 60 mins by gamma counting; type: ADME, organism-based; details: in vivo, 1 h
Brain [23] = test: Biodistribution in brain of Kunming mouse at 1 uCi, iv after 240 mins by gamma counting; type: ADME, organism-based; details: in vivo, 4 h
Stomach [24] = test: Biodistribution in stomach of Kunming mouse at 1 uCi, iv after 240 mins by gamma counting measured per organ; type: ADME, organism-based; details: in vivo, 4 h
Lung [25] = test: Biodistribution in lung of Kunming mouse at 1 uCi, iv after 2 mins by gamma counting; type: ADME, organism-based; details: in vivo
Liver [26] = test: Biodistribution in liver of Kunming mouse at 1 uCi, iv after 60 mins by gamma counting; type: ADME, organism-based; details: in vivo, 1 h
Spleen [27] = test: Biodistribution in spleen of Kunming mouse at 1 uCi, iv after 120 mins by gamma counting; type: ADME, organism-based; details: in vivo, 2 h
Liver [28] = test: Biodistribution in liver of Kunming mouse at 1 uCi, iv after 120 mins by gamma counting; type: ADME, organism-based; details: in vivo, 2 h
Muscle tissue [29] = test: Biodistribution in muscle of Kunming mouse at 1 uCi, iv after 60 mins by gamma counting; type: ADME, organism-based; details: in vivo, 1 h
[30] = Partition coefficient, log D in n-octanol/0.05 M phosphate buffer at pH 7.4; type: physicochemical
Liver [31] = test: Biodistribution in liver of Kunming mouse at 1 uCi, iv after 30 mins by gamma counting; type: ADME, organism-based; details: in vivo, 0.5 h
Kidney [32] = test: Biodistribution in kidney of Kunming mouse at 1 uCi, iv after 240 mins by gamma counting; type: ADME, organism-based; details: in vivo, 4 h
Blood [33] = test: Biodistribution in blood of Kunming mouse at 1 uCi, iv after 120 mins by gamma counting; type: ADME, organism-based; details: in vivo, 2 h
Heart [34] = test: Biodistribution in heart of Kunming mouse at 1 uCi, iv after 60 mins by gamma counting; type: ADME, organism-based; details: in vivo, 1 h
Heart [35] = test: Biodistribution in heart of Kunming mouse at 1 uCi, iv after 30 mins by gamma counting; type: ADME, organism-based; details: in vivo, 0.5 h
Spleen [36] = test: Biodistribution in spleen of Kunming mouse at 1 uCi, iv after 2 mins by gamma counting; type: ADME, organism-based; details: in vivo
Kidney [37] = test: Biodistribution in kidney of Kunming mouse at 1 uCi, iv after 120 mins by gamma counting; type: ADME, organism-based; details: in vivo, 2 h
Kidney [38] = test: Biodistribution in kidney of Kunming mouse at 1 uCi, iv after 2 mins by gamma counting; type: ADME, organism-based; details: in vivo
Lung [39] = test: Biodistribution in lung of Kunming mouse at 1 uCi, iv after 60 mins by gamma counting; type: ADME, organism-based; details: in vivo, 1 h
Stomach [40] = test: Biodistribution in stomach of Kunming mouse at 1 uCi, iv after 60 mins by gamma counting measured per organ; type: ADME, organism-based; details: in vivo, 1 h
Spleen [41] = test: Biodistribution in spleen of Kunming mouse at 1 uCi, iv after 30 mins by gamma counting; type: ADME, organism-based; details: in vivo, 0.5 h
Plasma = test: Metabolic stability in mouse plasma assessed as deiodination after 2 hrs by HPLC analysis; type: ADME, cell-free
Spleen [42] = test: Biodistribution in spleen of Kunming mouse at 1 uCi, iv after 60 mins by gamma counting; type: ADME, organism-based; details: in vivo, 1 h
Heart [43] = test: Biodistribution in heart of Kunming mouse at 1 uCi, iv after 240 mins by gamma counting; type: ADME, organism-based; details: in vivo, 4 h
Spleen [44] = test: Biodistribution in spleen of Kunming mouse at 1 uCi, iv after 240 mins by gamma counting; type: ADME, organism-based; details: in vivo, 4 h
Kidney [45] = test: Biodistribution in kidney of Kunming mouse at 1 uCi, iv after 60 mins by gamma counting; type: ADME, organism-based; details: in vivo, 1 h
Blood [46] = test: Biodistribution in blood of Kunming mouse at 1 uCi, iv after 30 mins by gamma counting; type: ADME, organism-based; details: in vivo, 0.5 h
Stomach [47] = test: Biodistribution in stomach of Kunming mouse at 1 uCi, iv after 30 mins by gamma counting measured per organ; type: ADME, organism-based; details: in vivo, 0.5 h
Brain [48] = test: Biodistribution in brain of Kunming mouse at 1 uCi, iv after 2 mins by gamma counting; type: ADME, organism-based; details: in vivo
Heart [49] = test: Biodistribution in heart of Kunming mouse at 1 uCi, iv after 2 mins by gamma counting; type: ADME, organism-based; details: in vivo
Muscle tissue [50] = test: Biodistribution in muscle of Kunming mouse at 1 uCi, iv after 120 mins by gamma counting; type: ADME, organism-based; details: in vivo, 2 h
Liver [51] = test: Biodistribution in liver of Kunming mouse at 1 uCi, iv after 240 mins by gamma counting; type: ADME, organism-based; details: in vivo, 4 h

CNc1ccc(-c2nc3ccc(O)cc3s2)cc1 [PITTSBURGH COMPOUND B UNLABELLED]
Ki [1]: 0.77 nM

Ic1ccc2nc(-c3ccc(-c4cccs4)s3)sc2c1
Activity (Mus musculus [2]): Active
Ki [3]: 0.25 nM
Activity (Mus musculus [4]): inactive
Ki [1]: 0.31 nM
Activity (Mus musculus [5]): Active

COc1ccc2nc(-c3ccc(-c4ccc([125I])s4)s3)sc2c1
Drug uptake (Blood [6]): 6.58 % ID/g
Drug uptake (Muscle tissue [7]): 2.73 % ID/g
Drug uptake (Brain [8]): 0.68 % ID/g
Drug uptake (Muscle tissue [9]): 1.95 % ID/g
Drug uptake (Blood [10]): 5.05 % ID/g
Drug uptake (Blood [11]): 23.34 % ID/g
Drug uptake (Brain [12]): 0.64 % ID/g
Drug uptake (Lung [13]): 6.12 % ID/g
Drug uptake (Lung [14]): 7.7 % ID/g
Drug uptake (Kidney [15]): 6.49 % ID/g
Drug uptake (Lung [16]): 10.28 % ID/g
Drug uptake (Muscle tissue [17]): 3.42 % ID/g
Drug uptake (Stomach [18]): 1.31 %ID
Drug uptake (Stomach [19]): 33.95 %ID
Drug uptake (Heart [20]): 3.48 % ID/g
Drug uptake (Liver [21]): 35.25 % ID/g
Drug uptake (Brain [22]): 0.77 % ID/g
Drug uptake (Brain [23]): 0.53 % ID/g
Drug uptake (Stomach [24]): 19.37 %ID
Drug uptake (Lung [25]): 43.6 % ID/g
Drug uptake (Liver [26]): 5.76 % ID/g
Drug uptake (Spleen [27]): 4.92 % ID/g
Drug uptake (Liver [28]): 4.33 % ID/g
Drug uptake (Muscle tissue [29]): 3.56 % ID/g
logD [30]: 3.27
Drug uptake (Liver [31]): 6.98 % ID/g
Drug uptake (Kidney [32]): 4.53 % ID/g
Drug uptake (Blood [33]): 6.62 % ID/g
Drug uptake (Heart [34]): 4.74 % ID/g
Drug uptake (Heart [35]): 5.94 % ID/g
Drug uptake (Spleen [36]): 19.04 % ID/g
Drug uptake (Kidney [37]): 5.67 % ID/g
Drug uptake (Kidney [38]): 14.3 % ID/g
Drug uptake (Lung [39]): 8.64 % ID/g
Drug uptake (Stomach [40]): 20.24 %ID
Drug uptake (Spleen [41]): 7.11 % ID/g
Stability (Plasma): Stable
Drug uptake (Spleen [42]): 6.24 % ID/g
Drug uptake (Heart [43]): 2.5 % ID/g
Drug uptake (Spleen [44]): 4.49 % ID/g
Drug uptake (Kidney [45]): 6.28 % ID/g
Drug uptake (Blood [46]): 6.55 % ID/g
Drug uptake (Stomach [47]): 15.84 %ID
Drug uptake (Brain [48]): 0.87 % ID/g
Drug uptake (Heart [49]): 16.13 % ID/g
Drug uptake (Muscle tissue [50]): 2.46 % ID/g
Drug uptake (Liver [51]): 3.23 % ID/g

Brc1ccc2nc(-c3ccc(-c4cccs4)s3)sc2c1
Ki [3]: 0.6 nM
Ki [1]: 0.57 nM
Activity (Mus musculus [5]): Active
